This note sets out measurements from ChEMBL document CHEMBL1201862, “PubChem BioAssay data set” (2004).

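Five compound concentrations were applied to cells in 96-well plates for 48 hours; endpoints were derived by simple linear interpolation of the resulting dose-response curve. Here, GI50 denotes the concentration required for 50% inhibition of growth.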 Calls of active or inactive are those of the source. No stated cut-off is given here; in the data, active = GI50 up to about 1.1 µM and inactive = higher.

Test systems include A498; ACHN; DU-145; EKVX; HL-60; HOP-62; K562; KM12; MCF7; MOLT-4; NCI-H522; OVCAR-4; OVCAR-5; PC-3; RXF 393; SF-268; SK-MEL-5; M14; CCRF-CEM; SF-539.
Experiment in all cases: inhibition of tumour cell growth, NCI panel, 48 h

Regarding `C1=Nc2sc3c(c2C2=NCCN12)CCCC3`, the GI50 in the experiment with A498 is 20.6 µM (inactive); in the experiment with ACHN, 17.1 µM (inactive); in the experiment on DU-145 it was 16.3 µM (inactive); in the experiment on EKVX it was 15.6 µM (inactive); in the experiment on HL-60, 13.6 µM (inactive); with HOP-62, 20 µM (inactive). The GI50 with K562 was 22.4 µM (inactive); with KM12, 17.2 µM (inactive); in the experiment on MCF7 it was 18.3 µM (inactive); in the experiment with MOLT-4, 13.8 µM (inactive); in the experiment on NCI-H522, 15.9 µM (inactive); with OVCAR-4, 20.6 µM (inactive). Further, the GI50 with OVCAR-5 is 18.2 µM (inactive); in the experiment with PC-3 it was 16.7 µM (inactive); in the experiment on RXF 393 it was 25 µM (inactive); in the experiment on SF-268 it was 20.6 µM (inactive); in the experiment on SK-MEL-5 it was 18 µM (inactive).

For `CC(C)CC1c2[nH]c3ccccc3c2C[C@H]2C(=O)NC(CCCCNC(=O)OC(C)(C)C)C(=O)N12` (stereo partly drawn), the GI50 was 35.4 µM (inactive) in the experiment with A498; 29 µM (inactive) with ACHN; 38 µM (inactive) in the experiment with DU-145; 51.9 µM (inactive) in the experiment with EKVX; 21.7 µM (inactive) with HL-60; 56.2 µM (inactive) with HOP-62. In addition, the GI50 in the experiment with K562 was 32 µM (inactive); in the experiment on KM12, 17 µM (inactive); with M14 it was 35.3 µM (inactive); in the experiment on MCF7, 34.3 µM (inactive); in the experiment with MOLT-4 it was 11.8 µM (inactive); with NCI-H522, 19.5 µM (inactive). For the same molecule, the GI50 with OVCAR-4 was 37.7 µM (inactive); with OVCAR-5, 61.5 µM (inactive); in the experiment on PC-3 it was 17.9 µM (inactive); in the experiment on RXF 393, 6.62 µM (inactive); in the experiment with SF-268, 21.4 µM (inactive); in the experiment on SK-MEL-5, 33.2 µM (inactive).

`CCOC(=O)c1nc2ccccc2nc1Oc1cc(OC)c(OC)c(OC)c1`: the GI50 in the experiment on A498 was > 100 µM (inactive); in the experiment on ACHN, 46.9 µM (inactive); in the experiment with CCRF-CEM it was > 100 µM (inactive); with DU-145, > 100 µM (inactive); in the experiment on EKVX it was > 100 µM (inactive); in the experiment with HL-60, > 100 µM (inactive). The GI50 is 31.4 µM (inactive) in the experiment with HOP-62; > 100 µM (inactive) in the experiment on KM12; > 100 µM (inactive) in the experiment on M14; > 100 µM (inactive) in the experiment on MCF7; > 100 µM (inactive) with MOLT-4; 83.4 µM (inactive) with NCI-H522. Besides, the GI50 is > 100 µM (inactive) with OVCAR-4; > 100 µM (inactive) in the experiment on OVCAR-5; > 100 µM (inactive) with PC-3; > 100 µM (inactive) in the experiment with SF-268; 39.4 µM (inactive) with SF-539; > 100 µM (inactive) in the experiment on SK-MEL-5.

Turning to `O=C1CSC(=O)/C1=C\NNc1nc2ccccc2o1`, the GI50 is 25.5 µM (inactive) in the experiment with A498; 32.6 µM (inactive) in the experiment with ACHN; 1.09 µM (active) with CCRF-CEM; 47.5 µM (inactive) with DU-145; 34.5 µM (inactive) in the experiment with EKVX; 0.586 µM (active) in the experiment with HL-60. The GI50 with HOP-62 was 51.8 µM (inactive); in the experiment with KM12, 67.9 µM (inactive); with M14, 19.3 µM (inactive); in the experiment with MCF7 it was 59.3 µM (inactive); in the experiment on MOLT-4, 21 µM (inactive); with OVCAR-4, 38.3 µM (inactive). Besides, the GI50 in the experiment with OVCAR-5 is 60.7 µM (inactive); in the experiment on PC-3, 21.8 µM (inactive); in the experiment with RXF 393 it was 21.8 µM (inactive); with SF-268, 30.5 µM (inactive); in the experiment with SF-539, 11.4 µM (inactive); in the experiment with SK-MEL-5, 14.4 µM (inactive).

Consider `CCOP(=O)(OCC)/C(C#N)=C/c1c[nH]c2ccccc12`, for which the GI50 in the experiment with A498, in the experiment with ACHN, in the experiment on DU-145, in the experiment with EKVX, with HL-60 and with HOP-62 was > 100 µM (inactive) each time. Further, the GI50 in the experiment on K562, in the experiment with KM12, in the experiment on M14, in the experiment with MCF7, with NCI-H522 and in the experiment with OVCAR-4 was > 100 µM (inactive) in each case. Further, the GI50 in the experiment with OVCAR-5, with PC-3, in the experiment on RXF 393, with SF-268, in the experiment on SF-539 and in the experiment with SK-MEL-5 was > 100 µM (inactive) each time.

For the molecule `Oc1nnc(-c2ccc(F)cc2)cc1-c1ccccc1`, the GI50 with A498 is 64.4 µM (inactive); in the experiment with ACHN it was 57.9 µM (inactive); in the experiment with CCRF-CEM it was > 100 µM (inactive); with DU-145 it was 57.5 µM (inactive); with EKVX, 42.9 µM (inactive); in the experiment on HL-60 it was > 100 µM (inactive). Besides, the GI50 in the experiment on K562 was > 100 µM (inactive); with KM12, > 100 µM (inactive); in the experiment on M14 it was > 100 µM (inactive); in the experiment on MCF7, 71.4 µM (inactive); in the experiment on MOLT-4, > 100 µM (inactive); in the experiment on OVCAR-4 it was 38 µM (inactive). The GI50 in the experiment with OVCAR-5 was > 100 µM (inactive); in the experiment with PC-3, 91.4 µM (inactive); in the experiment on RXF 393, 46.1 µM (inactive); in the experiment with SF-268 it was 46.1 µM (inactive); with SF-539 it was 35.9 µM (inactive); with SK-MEL-5, > 100 µM (inactive).

As for `COc1ccc(C2=C(N)c3c(OC)cccc3C2=O)cc1`, the GI50 in the experiment with A498 is > 100 µM (inactive); in the experiment on ACHN, > 10 µM (inactive); in the experiment on CCRF-CEM, > 100 µM (inactive); in the experiment with DU-145, > 100 µM (inactive); in the experiment with EKVX, > 100 µM (inactive); in the experiment with HL-60, > 100 µM (inactive). Moreover, the GI50 with HOP-62 is 22.5 µM (inactive); in the experiment on K562 it was > 100 µM (inactive); in the experiment with KM12, > 100 µM (inactive); in the experiment on M14, 97.5 µM (inactive); with MCF7, 60.5 µM (inactive); with MOLT-4, > 100 µM (inactive). In addition, the GI50 in the experiment with OVCAR-4 is > 100 µM (inactive); with OVCAR-5 it was > 100 µM (inactive); with PC-3 it was > 100 µM (inactive); in the experiment on RXF 393, 9.66 µM (inactive); in the experiment with SF-268, 37.8 µM (inactive); in the experiment with SF-539, 15 µM (inactive).

Consider `OC1(c2ccccc2)c2ccccc2N=C2NCCN21` (stereo not drawn), for which the GI50 with A498 is 86.5 µM (inactive); in the experiment on ACHN it was > 100 µM (inactive); with DU-145 it was > 100 µM (inactive); in the experiment with EKVX, > 100 µM (inactive); with HL-60 it was 44.1 µM (inactive); in the experiment with HOP-62, > 100 µM (inactive). In addition, the GI50 is > 100 µM (inactive) in the experiment on KM12; 50.6 µM (inactive) in the experiment on M14; 63.1 µM (inactive) in the experiment with MCF7; 0.424 µM (active) with MOLT-4; > 100 µM (inactive) with NCI-H522; > 100 µM (inactive) in the experiment on OVCAR-4. For the same molecule, the GI50 in the experiment with OVCAR-5 is > 100 µM (inactive); in the experiment on PC-3 it was 52.2 µM (inactive); in the experiment on RXF 393 it was 82.6 µM (inactive); with SF-268, > 100 µM (inactive); in the experiment with SF-539, > 100 µM (inactive); in the experiment with SK-MEL-5 it was 37.6 µM (inactive).

As to `CN(Cc1cnc2nc(N)nc(N)c2n1)c1ccc(C(=O)NC2CCCCC2)cc1`, the GI50 with A498 was 24.4 µM (inactive); in the experiment with ACHN, 23.3 µM (inactive); in the experiment with CCRF-CEM, 36.7 µM (inactive); with DU-145, 37.6 µM (inactive); with EKVX it was 53.6 µM (inactive); in the experiment on HL-60, 23.7 µM (inactive). Moreover, the GI50 is 34.5 µM (inactive) in the experiment on HOP-62; 7.33 µM (inactive) in the experiment on K562; 26.9 µM (inactive) with KM12; 10.6 µM (inactive) with M14; 29 µM (inactive) in the experiment with MCF7; 34.7 µM (inactive) in the experiment with MOLT-4. Besides, the GI50 is 74.3 µM (inactive) with OVCAR-5; 7.64 µM (inactive) in the experiment with PC-3; 33 µM (inactive) with RXF 393; 19 µM (inactive) in the experiment with SF-268; 13.6 µM (inactive) with SF-539; 12.3 µM (inactive) in the experiment with SK-MEL-5.

For `O=C(O)CC(Cc1ccccc1)C(=O)O` (stereo not drawn), the GI50 in the experiment on A498, with ACHN, in the experiment on CCRF-CEM, in the experiment with DU-145, in the experiment on EKVX and with HOP-62 was > 100 µM (inactive) in each case. In addition, the GI50 in the experiment on K562, in the experiment with KM12, in the experiment with M14, with MCF7, in the experiment on MOLT-4 and with NCI-H522 was > 100 µM (inactive) in each case. Further, the GI50 with OVCAR-4, with OVCAR-5, with PC-3, in the experiment on RXF 393, in the experiment on SF-268 and in the experiment with SF-539 was > 100 µM (inactive) in each case. In addition, in the experiment with SK-MEL-5, the GI50 was > 100 µM (inactive).

Regarding `CCNC(=S)Nc1c(C#N)c2n(c1C(=O)OCC)CCCCC2`, the GI50 in the experiment on A498, in the experiment with ACHN, in the experiment with CCRF-CEM, with DU-145, with EKVX and in the experiment on HL-60 was > 100 µM (inactive) in each case. In addition, the GI50 was 35.2 µM (inactive) with HOP-62; > 100 µM (inactive) with K562; > 100 µM (inactive) in the experiment on KM12; > 100 µM (inactive) in the experiment on M14; > 100 µM (inactive) in the experiment on MCF7; > 100 µM (inactive) with MOLT-4. In addition, the GI50 was > 100 µM (inactive) in the experiment on OVCAR-4; > 100 µM (inactive) with PC-3; 33.1 µM (inactive) in the experiment with RXF 393; 62.7 µM (inactive) with SF-268; 64.7 µM (inactive) with SF-539; > 100 µM (inactive) with SK-MEL-5.
